ChEMBL document CHEMBL5634121, “Discovery of novel G9a/GLP covalent inhibitors for the treatment of triple-negative breast cancer” (Eur J Med Chem, 2023)
Activity calls are given as the source filed them. The rule behind the calls is not given here.

Experiments:
[1] = target: T1, Histone-lysine N-methyltransferase EHMT2 (Homo sapiens) (UniProt Q96KQ7); assay: Inhibition of G9a (unknown origin) at 1 uM by AlphaLISA immunodetection assay relative to control
T1 sequence (whole entry): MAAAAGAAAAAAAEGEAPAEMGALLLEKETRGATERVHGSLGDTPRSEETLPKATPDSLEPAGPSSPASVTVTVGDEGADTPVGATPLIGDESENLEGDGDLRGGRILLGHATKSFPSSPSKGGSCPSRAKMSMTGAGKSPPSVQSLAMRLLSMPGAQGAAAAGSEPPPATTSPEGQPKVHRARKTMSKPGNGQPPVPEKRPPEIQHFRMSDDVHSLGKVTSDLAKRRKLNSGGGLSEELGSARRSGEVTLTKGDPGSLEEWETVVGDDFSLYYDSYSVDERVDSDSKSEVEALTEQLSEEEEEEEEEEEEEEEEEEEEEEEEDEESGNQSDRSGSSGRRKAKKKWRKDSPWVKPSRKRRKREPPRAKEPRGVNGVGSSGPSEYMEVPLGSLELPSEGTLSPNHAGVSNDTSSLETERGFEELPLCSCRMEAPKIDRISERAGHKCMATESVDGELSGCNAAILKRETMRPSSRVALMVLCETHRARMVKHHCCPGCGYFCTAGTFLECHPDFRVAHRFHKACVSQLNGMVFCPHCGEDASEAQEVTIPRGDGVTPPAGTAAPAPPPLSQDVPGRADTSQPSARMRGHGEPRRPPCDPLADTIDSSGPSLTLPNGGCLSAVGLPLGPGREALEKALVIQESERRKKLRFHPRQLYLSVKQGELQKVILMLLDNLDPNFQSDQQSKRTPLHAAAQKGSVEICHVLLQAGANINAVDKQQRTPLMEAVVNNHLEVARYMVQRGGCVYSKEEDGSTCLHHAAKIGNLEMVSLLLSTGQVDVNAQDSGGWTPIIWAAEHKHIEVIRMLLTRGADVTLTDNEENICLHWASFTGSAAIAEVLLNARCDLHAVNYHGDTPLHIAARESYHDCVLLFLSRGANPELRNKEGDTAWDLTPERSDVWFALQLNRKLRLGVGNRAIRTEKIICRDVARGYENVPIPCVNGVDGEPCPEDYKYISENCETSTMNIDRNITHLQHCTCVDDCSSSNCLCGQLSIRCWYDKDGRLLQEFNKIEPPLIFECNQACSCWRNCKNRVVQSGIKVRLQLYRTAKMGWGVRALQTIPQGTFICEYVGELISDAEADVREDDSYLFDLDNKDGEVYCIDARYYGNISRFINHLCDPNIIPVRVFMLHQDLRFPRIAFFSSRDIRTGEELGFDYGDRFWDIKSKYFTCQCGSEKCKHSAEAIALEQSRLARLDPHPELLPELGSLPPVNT

MDA-MB-231 [2] = assay: Antiproliferative activity against human MDA-MB-231 cells incubated for 3 to 5 days by MTT assay; assay type: functional, cell-based; settings: time 3-5 day
[3] = target: T2, Histone-lysine N-methyltransferase EHMT2 (Homo sapiens, UniProt Q96KQ7); assay: Inhibition of G9a (unknown origin)
T2 sequence (Q96KQ7 whole entry): T1 sequence (whole entry)

[4] = target: T3, Histone-lysine N-methyltransferase EHMT1 (Homo sapiens) (UniProt Q9H9B1); assay: Inhibition of GLP (unknown origin) at 1 uM
T3 sequence (whole entry): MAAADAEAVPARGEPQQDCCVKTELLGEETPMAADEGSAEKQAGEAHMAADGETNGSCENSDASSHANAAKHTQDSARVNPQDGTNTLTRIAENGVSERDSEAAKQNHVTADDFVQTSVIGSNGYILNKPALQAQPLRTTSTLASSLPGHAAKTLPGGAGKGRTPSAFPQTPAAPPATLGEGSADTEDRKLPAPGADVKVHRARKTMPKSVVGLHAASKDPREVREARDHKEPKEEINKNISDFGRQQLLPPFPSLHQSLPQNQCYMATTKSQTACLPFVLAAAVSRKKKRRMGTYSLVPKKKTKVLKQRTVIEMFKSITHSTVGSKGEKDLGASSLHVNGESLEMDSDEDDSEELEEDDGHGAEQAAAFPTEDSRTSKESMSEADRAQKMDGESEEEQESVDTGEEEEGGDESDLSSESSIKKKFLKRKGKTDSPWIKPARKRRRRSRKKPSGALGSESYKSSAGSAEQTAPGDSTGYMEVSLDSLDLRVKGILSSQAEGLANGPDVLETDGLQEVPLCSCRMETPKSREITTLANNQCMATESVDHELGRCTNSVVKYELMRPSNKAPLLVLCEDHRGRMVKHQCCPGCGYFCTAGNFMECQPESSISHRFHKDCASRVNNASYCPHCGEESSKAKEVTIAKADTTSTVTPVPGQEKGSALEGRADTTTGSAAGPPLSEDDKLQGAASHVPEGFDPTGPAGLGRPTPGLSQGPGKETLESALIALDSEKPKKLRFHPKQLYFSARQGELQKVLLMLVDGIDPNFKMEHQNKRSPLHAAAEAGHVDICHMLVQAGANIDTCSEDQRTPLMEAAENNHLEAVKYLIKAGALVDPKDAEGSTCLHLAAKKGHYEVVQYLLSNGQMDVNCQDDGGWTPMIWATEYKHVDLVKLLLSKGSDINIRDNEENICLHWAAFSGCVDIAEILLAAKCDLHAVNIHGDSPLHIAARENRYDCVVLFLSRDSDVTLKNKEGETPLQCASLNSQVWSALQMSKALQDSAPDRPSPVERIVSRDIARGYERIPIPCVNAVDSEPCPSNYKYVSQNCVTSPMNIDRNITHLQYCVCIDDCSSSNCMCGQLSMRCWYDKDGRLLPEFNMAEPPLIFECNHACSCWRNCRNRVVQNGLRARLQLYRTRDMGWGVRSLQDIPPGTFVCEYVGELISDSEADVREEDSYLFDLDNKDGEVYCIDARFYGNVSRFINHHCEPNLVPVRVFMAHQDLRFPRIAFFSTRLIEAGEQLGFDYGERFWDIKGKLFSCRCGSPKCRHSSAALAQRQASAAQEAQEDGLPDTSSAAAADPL

MDA-MB-231 [5] = assay: Inhibition of colony formation in human MDA-MB-231 cells at 1 to 10 uM refreshed every 4 days for 12 days by crystal violet staining based assay; assay type: functional, cell-based; settings: dose 1-10 µM, time 12.0 day
MDA-MB-231 [6] = assay: Induction of apoptosis in human MDA-MB-231 cells assessed as late apoptotic cells at 5 uM incubated for 72 hrs by Annexin V and PI staining based flow cytometry analysis (reference value: 0.45 %); assay type: functional
MDA-MB-231 [7] = assay: Induction of apoptosis in human MDA-MB-231 cells assessed as early apoptotic cells at 20 uM incubated for 72 hrs by Annexin V and PI staining based flow cytometry analysis (reference value: 0.92 %); assay type: functional
[8] = target: Histone-lysine N-methyltransferase EHMT1/EHMT2 (Homo sapiens) (UniProt Q9H9B1+Q96KQ7); assay: Inhibition of G9a/GLP in human MDA-MB-231 cells assessed as reduction in H3K9 dimethylation at 20 uM incubated for 1 day followed by compound washout and measured after 1 to 4 days; assay type: cell-based

`C=CC(=O)Nc1cccc(-c2nc(NC3CCN(C)CC3)c3cc(OC)c(OC)cc3n2)c1` was tested, and the inhibition [1] was 96%, the Activity (MDA-MB-231 [2]) was “Dose-Dependent Effect” and the IC50 [3] was 1220 nM. For the same compound, the inhibition [4] was “Active”, the inhibition (MDA-MB-231 [5]) was “Active” and the Activity (MDA-MB-231 [6]) was 3.01%. The Activity (MDA-MB-231 [7]) was 21.6% and the inhibition [8] was “Active”.
